From patent US8710001B2, “PEGylated, extended insulins” (Novo Nordisk A/S, priority 2006, dated 2014) come the findings set out here.

The target of the test is human insulin receptor, A-isoform (without exon 11) (Homo sapiens, UniProt P06213). The test is described as follows: Insulin receptor binding, SPA (Scintillation Proximity Assay) microtiterplate antibody capture assay. The settings on record: affinity relative to human insulin; purified recombinant human insulin receptor; A14Tyr[125I]-human insulin tracer; 16 hours incubation. The method, then: The affinity of the insulin derivatives of this invention for the human insulin receptor is determined by a SPA assay (Scintillation Proximity Assay) microtiterplate antibody capture assay. SPA-PVT antibody-binding beads, anti-mouse reagent (Amersham Biosciences, Cat No. PRNQ0017) are mixed with 25 ml of binding buffer (100 mM HEPES pH 7.8; 100 mM sodium chloride, 10 mM MgSO4, 0.025% Tween-20). Reagent mix for a single Packard Optiplate (Packard No. 6005190) is composed of 2.4 μl of a 1:5000 diluted purified recombinant human insulin receptor (either with or without exon 11), an amount of a stock solution of A14Tyr[^125I]-human insulin corresponding to 5000 cpm per 100 μl of reagent mix, 12 μl of a 1:1000 dilution of F12 antibody, 3 ml of SPA-beads and binding buffer to a total of 12 ml. A total of 100 μl reagent mix is then added to each well in the Packard Optiplate and a dilution series of the insulin derivative is made in the Optiplate from appropriate samples. The samples are then incubated for 16 hours while gently shaken. The phases are the then separated by centrifugation for 1 min and the plates counted in a Topcounter. The binding data were fitted using the nonlinear regression algorithm in the GraphPad Prism 2.01 (GraphPad Software, San Diego, Calif.).
(SPA uses beads or plates that emit light when radiolabelled molecules are held near them.)

Sequence of human insulin receptor, A-isoform (without exon 11) (P06213 28-746 isoform P06213-2 limits assumed): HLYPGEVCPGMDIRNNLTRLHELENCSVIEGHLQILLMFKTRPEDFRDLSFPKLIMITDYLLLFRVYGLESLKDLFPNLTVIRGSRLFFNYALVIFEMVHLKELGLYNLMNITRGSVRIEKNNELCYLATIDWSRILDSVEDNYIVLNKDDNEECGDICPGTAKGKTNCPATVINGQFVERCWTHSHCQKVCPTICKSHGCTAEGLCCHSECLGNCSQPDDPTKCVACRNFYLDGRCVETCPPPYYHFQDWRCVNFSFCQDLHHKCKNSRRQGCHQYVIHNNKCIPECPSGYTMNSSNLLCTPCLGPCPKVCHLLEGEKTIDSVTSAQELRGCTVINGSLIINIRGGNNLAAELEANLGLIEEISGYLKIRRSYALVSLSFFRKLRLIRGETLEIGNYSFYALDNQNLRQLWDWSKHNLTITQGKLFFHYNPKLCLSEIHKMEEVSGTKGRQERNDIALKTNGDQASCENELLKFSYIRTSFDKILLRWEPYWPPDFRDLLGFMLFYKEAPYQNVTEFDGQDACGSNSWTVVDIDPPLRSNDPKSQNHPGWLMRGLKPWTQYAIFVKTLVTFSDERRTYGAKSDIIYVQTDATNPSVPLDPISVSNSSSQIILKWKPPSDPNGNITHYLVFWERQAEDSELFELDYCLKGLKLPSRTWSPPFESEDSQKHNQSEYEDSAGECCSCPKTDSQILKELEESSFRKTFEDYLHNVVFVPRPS
Sequence of human insulin receptor, A-isoform (without exon 11) (P06213 763-1382 partner limits assumed): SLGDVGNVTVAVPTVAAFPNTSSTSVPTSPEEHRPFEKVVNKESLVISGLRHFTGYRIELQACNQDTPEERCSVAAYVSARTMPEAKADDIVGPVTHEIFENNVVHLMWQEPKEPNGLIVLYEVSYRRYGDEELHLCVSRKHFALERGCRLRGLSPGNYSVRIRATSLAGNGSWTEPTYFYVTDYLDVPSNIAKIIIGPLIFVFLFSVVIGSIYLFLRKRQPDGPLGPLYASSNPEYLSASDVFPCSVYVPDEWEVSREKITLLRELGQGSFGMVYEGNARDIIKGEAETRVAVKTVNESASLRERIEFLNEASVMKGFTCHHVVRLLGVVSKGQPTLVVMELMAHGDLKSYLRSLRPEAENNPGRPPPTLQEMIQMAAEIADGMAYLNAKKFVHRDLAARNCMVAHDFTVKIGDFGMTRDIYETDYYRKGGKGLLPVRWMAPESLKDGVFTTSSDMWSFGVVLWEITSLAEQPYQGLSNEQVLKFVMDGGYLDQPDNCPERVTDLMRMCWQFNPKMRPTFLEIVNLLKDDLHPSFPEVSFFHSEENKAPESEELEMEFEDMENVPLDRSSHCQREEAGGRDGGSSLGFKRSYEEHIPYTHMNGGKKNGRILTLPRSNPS

“A14E, A22K(N^+mPEG2000-Propionyl), B25H, B29R, desB30 Human Insulin [Example 16]”: the “Insulin receptor binding, A-isoform (without exon 11) Relative to human insulin” value turned out to be 15%.
Consider “A14E, A22K(N^ε(mdPEG12)3-dPEG4-yl), B25H, B29R, desB30 Human Insulin [Example 17]”, for which the “Insulin receptor binding, A-isoform (without exon 11) Relative to human insulin” value turned out to be 19%.
Take “A14E, A22K(N^ε(mdPEG12)3-dPEG4-yl-dPEG12-yl), B25H, B29R, desB30 Human Insulin [Example 18]”: the “Insulin receptor binding, A-isoform (without exon 11) Relative to human insulin” value is given as 16%.
“A22G, A23G, A24G, A25K(N^εmPEG750-Propionyl), B29R, desB30 Human Insulin [Example 7]”: the “Insulin receptor binding, A-isoform (without exon 11) Relative to human insulin” value came out at 44%.
“A22G, A23K(N^εmPEG2000-Propionyl), B29R, desB30 Human Insulin [Example 8]”: the “Insulin receptor binding, A-isoform (without exon 11) Relative to human insulin” value is 58%.
For “A22K(N^ε(mdPEG12)3-dPEG4-yl), B29R, desB30 Human Insulin [Example 6]”, the “Insulin receptor binding, A-isoform (without exon 11) Relative to human insulin” value is 120%.
With “A22K(N^ε(mdPEG12)3-dPEG4-yl-dPEG12-yl), B29R, desB30 Human Insulin [Example 19]”, the “Insulin receptor binding, A-isoform (without exon 11) Relative to human insulin” value came to 106%.
In the case of “A22K(N^ε-mPEG2000-Propionyl), B29R, desB30 Human Insulin [Example 1]”, the “Insulin receptor binding, A-isoform (without exon 11) Relative to human insulin” value turned out to be 90%.
With “A22K(N^εmPEG2000-Propionyl), B29R, desB30 Human Insulin [Example 2]”, the “Insulin receptor binding, A-isoform (without exon 11) Relative to human insulin” value came to 90%.
The result for “B29Q, B31K(N^ε(mPEG2000-Propionyl)) Human Insulin [Example 22]” reads 14%.
